Test results from patent publication EP1746104B1, “NOVEL SOLUBLE CD14 ANTIGEN” (MOCHIDA PHARMACEUTICAL CO., LTD., priority 2004, dated 2005).
Ends that are not written are not given here.

Assays:
[1] = system: S68 antibody; assay: Peptide blocking of S68 antibody binding to serum protein (specificity of S68 antibody); set-up: species or system rabbit; settings: peptide 0, 0.1, 1, and 10 µg/mL; sera of sepsis patients and normal donors
Text: For confirming the specificity of S68 antibody prepared in Example 1, the inventors studied whether blocking occurs by a peptide by the same assay as that of Example 3-(3). That is, S68 peptide (amino acid sequence at positions 53 to 68), synthetic polypeptide prepared by the same way as that of Example 1 (amino acid sequence at positions 53 to 58, amino acid sequence at positions 57 to 62, and amino acid sequence at positions 59 to 64), or negative control peptide (Cys Glu Gly Asn Gly Asn Asn Phe Glu Ser Arg Glu Ala Cys) was diluted to 0, 0.1, 1, and 10 µg/mL and 25 µL of each diluted solution was added to 25 µL of each of 50-fold diluted solutions of the sera obtained from patients suffering from sepsis and the sera of normal donors to initiate a competitive reaction by mixing with S68 antibody. After that, the levels of the soluble protein bound to S68 antibody without inhibition by any peptide were determined.
The above result confirmed that a protein being detected in blood by S68 antibody is specifically recognized by S68 antibody. In addition, the result also confirmed that the sequence recognized by the antibody requires a length of at least 7 amino acids because the inhibition can not be attained by three kinds of synthetic peptides (the number of amino acids: 6) corresponding to the partial peptides of S68 peptide.

[2] = Measurement of chemically synthesized peptide with kit of Example 7-(3); assay type: binding
Text: A peptide synthesizer ABI433A (Applied) was used and amino acid columns were then aligned according to the amino acid sequences to carry out automatic synthesis. The synthesized peptide was removed from a resin by the conventional method and then recovered by ether precipitation. The resultant peptide was re-dissolved in distilled water and then freeze-dried. After the dissolution, the crude peptide thus obtained was eluted through a linear gradient of 5-70% acetonitrile by the use of C18 reversed phase HPLC (CAPCELL-PAK, Shiseido Co., Ltd.). Consequently, a fraction containing a peptide of interest was collected. The collected fraction was freeze-dried and provided as a purified peptide. The purified peptide was dissolved in the diluent described in Example 7-(12) and then the solution was subjected to the measurement with the kit described in Example 7-(3).

| Molecule | inhibition of the binding between S68 antibody and the soluble protein in serum [1] | reaction with the kit described in Example 7-(3) [2] |
| --- | --- | --- |
| CEGNGNNFESREAC (cysteine pairing not given here) [negative control peptide, reference compound] | not inhibited |  |
| S68 peptide: peptide having the sequence of SEQ ID NO: 2, positions 53 to 68 of SEQ ID NO: 3 (RVDADADPRQYADTVK) | inhibited |  |
| sCD14(1-70): chemically synthesized soluble polypeptide having amino acids at positions 1 to 70 on the N-terminal of human CD14 (peptide) peptide: TTPEPCELDDEDFRCVCNFSEPQPDWSEAFQCVSAVEVEIHAGGLNLEPFLKRVDADADPRQYADTVKAL |  | strongly reacted |
